# Patent US20140018424A1, “PREVENTIVE EFFECT OF CITRULLINE ON THE SPONTANEOUS DEVELOPMENT OF TUMORS” (UNIVERSITE PARIS DESCARTES, priority 2011, published 2014)
# Experiments:
# Type in all cases: in vivo, male Sprague-Dawley rats
# [1] = tested on: polyamines; assay: Level of polyamines in liver, jejunum and ileum of aged rats
# Description: (§1) Thirty-nine male Sprague-Dawley rats aged 20 months and free of tumours (Charles River, L'Arbresle, France) are used. They are raised individually in cages, at a temperature of 20-23° C., subjected to a cycle of 12 hours of light alternating with 12 hours of darkness. They have free access to water. For the acclimatization period, all the rats are fed a standard diet (59% carbohydrates, 3% lipids, 17% proteins and 21% fibres) ad libitum (UAR of 0.4 Dietex, Villemoisson-sur-Orge, France) for 2 weeks. The animals are cared for in accordance with French regulations on the protection of animals used for experimental and scientific purposes (D 2001-486) and with the Regulations of the European Community (Official Journal of the European Community, L538 12:18:1986).
# (§2) After the acclimatization period, the rats are randomly divided into 2 groups.
# In the “citrulline” group (CIT, n=19), the rats are fed ad libitum for 12 weeks with a citrulline-based supplement (1 g.kg^−1.day^−1 of citrulline) mixed with their standard diet. The dose of citrulline is calculated by extrapolation of the doses used in humans, taking into account the fact that the metabolic rate and nitrogen requirements are 10 times greater in rodents than those measured in humans and very close to the dose of arginine administered to rats for 12 weeks by Jobgen W. et al. (J Nutr 2009;139:230-7). This dose corresponds to approximately 9% of the nitrogen intake, i.e. approximately 7g/day in the healthy adult volunteer.
# In the “non-essential amino acids” group (NEAA, n=20), the rats are fed ad libitum for 12 weeks with a standard food rendered isonitrogenous with respect to the citrulline group by the addition of non-essential amino acids: […], serine, alanine and glycine in an equimolar ratio.
# The rats are euthanized in the post-absorptive state after treatment for 12 weeks. The statistical studies are carried out using Statview® software
# [2] = tested on: tumours; assay: Incidence of tumours after euthanasia in aged rats; conditions: after euthanasia at 12 weeks; NEAA vs CIT p<0.05
# Description: as §1, §2
# (§3) In the “citrulline” group (CIT, n=19), the rats are fed ad libitum for 12 weeks with a citrulline-based supplement (1 g.kg^−1.day^−1 of citrulline) mixed with their standard diet. The dose of citrulline is calculated by extrapolation of the doses used in humans, taking into account the fact that the metabolic rate and nitrogen requirements are 10 times greater in rodents than those measured in humans and very close to the dose of arginine administered to rats for 12 weeks by Jobgen W. et al. (J Nutr 2009;139:230-7). […]
# [3] = Body weight of aged rats before and after 12 weeks of supplementation
# [4] = tested on: aged healthy rats; assay: Mortality over 12 weeks in aged healthy rats fed supplemented diet; conditions: rats aged 20 months, supplemented diet ad libitum for 12 weeks; NEAA vs CIT p<0.05
# Description: as §1, §2, §3
structure (smiles),measurement,setting,value
"NC(=O)NCCCC(N)C(=O)O (stereo not drawn) [CIT, 2-amino-5-(carbamoylamino)pentanoic acid]",effect of supplementation on putrescine,[1]; 12 weeks of supplementation,significant increase
same,Ileum putrescine,"[1]; after 12 weeks, p 0.028",79.8 ± 25
same,Liver putrescine,"[1]; after 12 weeks, p 0.034",17.1 ± 14.5
same,Ileum spermidine,"[1]; after 12 weeks, p NS",374 ± 70
same,Ileum spermine,"[1]; after 12 weeks, p NS",203 ± 43
same,Jejunum putrescine,"[1]; after 12 weeks, p NS",82.7 ± 36
same,Jejunum spermidine,"[1]; after 12 weeks, p NS",478 ± 200
same,Jejunum spermine,"[1]; after 12 weeks, p NS",297 ± 88
same,Liver spermidine,"[1]; after 12 weeks, p NS",372 ± 90
same,Liver spermine,"[1]; after 12 weeks, p NS",557 ± 245
same,incidence of tumours (rats with tumours/rats assessed),[2],0/19
same,effect of supplementation on body weight,"[3]; 12 weeks, 1 g.kg^-1.day^-1 in the diet",does not affect the body weight
same,Final body weight,"[3]; after the 12-week supplementation, NEAA vs CIT N.S",630 ± 13
same,Initial body weight,"[3]; before the 12-week supplementation, NEAA vs CIT N.S",669 ± 16
same,mortality over 12 weeks (dead rats/rats in group),[4],0/19
